Data published in PubChem BioAssay (NCI).
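Dose response: 5 concentrations. Exposure: 48 h. Format: 96-well plates. Endpoint: linear interpolation; highest concentration if not reached. At the GI50, growth is halved. TGI denotes the concentration required for complete inhibition of growth.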

Each molecule was assayed on HS 578T breast (assay: inhibition of tumour cell growth, NCI panel, 48 h).
Molecule `O=C1OC(c2ccccc2)=N/C1=C\c1ccc([N+](=O)[O-])cc1` has a TGI of over 100 µM. `O=C(O)Cc1ccc([N+](=O)[O-])cc1[N+](=O)[O-]` was tested, and the TGI was over 100 µM. Work on `COc1cc(/C=C2\CN(S(=O)(=O)c3ccc(C)cc3)C/C(=C\c3cc(CN4CCCC4)c(O)c(OC)c3)C2=O)cc(CN2CCCC2)c1O` yielded a GI50 of 2.73 µM and a TGI of 7.72 µM.

These molecules were tested on SNB-78 CNS (assay: inhibition of tumour cell growth, NCI panel, 48 h).
With `O=C(CC1Sc2ccccc2NC1=O)Nc1ccccc1[N+](=O)[O-]` (stereo not given) the TGI was over 100 µM. `CCn1cnc2c(=S)nc(N)[nH]c21` gave a TGI of over 100 µM. `CC1NC(=O)C(C)C(c2ccccc2)N(N=O)C1c1ccccc1` (stereo not given) gave a TGI of over 100 µM. `CON(C)C(=O)C(Cc1ccccc1)NC(=O)OCc1ccccc1` (stereo not given) showed a TGI of over 100 µM. `Cc1ccc(C(=O)OC(C(=O)O)C(OC(=O)c2ccc(C)cc2)C(=O)O)cc1` (stereo not given) (tested in a mixture with another compound) was tested, and the TGI was 33.8 µM.

These molecules were tested on KM20L2 colon (assay: inhibition of tumour cell growth, NCI panel, 48 h).
Molecule `O=C(CC1Sc2ccccc2NC1=O)Nc1ccccc1[N+](=O)[O-]` (stereo not given) has a TGI of over 100 µM. `CCn1cnc2c(=S)nc(N)[nH]c21` showed a TGI of over 100 µM. With `CC1NC(=O)C(C)C(c2ccccc2)N(N=O)C1c1ccccc1` (stereo not given) the TGI was over 100 µM. Molecule `CON(C)C(=O)C(Cc1ccccc1)NC(=O)OCc1ccccc1` (stereo not given) has a TGI of over 100 µM. Molecule `Cc1ccc(C(=O)OC(C(=O)O)C(OC(=O)c2ccc(C)cc2)C(=O)O)cc1` (stereo not given) (tested in a mixture with another compound) has a TGI of 13 µM.

What follows are molecules tested on LXFL 529 NSCLC (assay: inhibition of tumour cell growth, NCI panel, 48 h).
`O=C(CC1Sc2ccccc2NC1=O)Nc1ccccc1[N+](=O)[O-]` (stereo not given) gave a TGI of over 100 µM. For `CCn1cnc2c(=S)nc(N)[nH]c21`, the TGI was over 100 µM. For `CON(C)C(=O)C(Cc1ccccc1)NC(=O)OCc1ccccc1` (stereo not given), the TGI was over 100 µM.

What follows are molecules tested on OVCAR-4 ovarian (assay: inhibition of tumour cell growth, NCI panel, 48 h).
Work on `O=C(CC1Sc2ccccc2NC1=O)Nc1ccccc1[N+](=O)[O-]` (stereo not given) yielded a TGI of over 100 µM. `CCOC(=O)c1csc(NC(=O)CN2CCCC2)n1` was tested, and the TGI was over 100 µM. `CC1NC(=O)C(C)C(c2ccccc2)N(N=O)C1c1ccccc1` (stereo not given) was tested, and the TGI was 97.1 µM. `O=C1OC(c2ccccc2)=N/C1=C\c1ccc([N+](=O)[O-])cc1` gave a TGI of over 100 µM. `CO[C@](C(=O)OC[C@H]1[C@@H](COC(C)=O)[C@@H]2O[C@H]1c1cc3c(cc12)OCO3)(c1ccccc1)C(F)(F)F` showed a TGI of over 100 µM. In the case of `O=C(O)Cc1ccc([N+](=O)[O-])cc1[N+](=O)[O-]`, the TGI was over 100 µM. Work on `CON(C)C(=O)C(Cc1ccccc1)NC(=O)OCc1ccccc1` (stereo not given) yielded a TGI of over 100 µM. For `COc1cc(/C=C2\CN(S(=O)(=O)c3ccc(C)cc3)C/C(=C\c3cc(CN4CCCC4)c(O)c(OC)c3)C2=O)cc(CN2CCCC2)c1O`, the GI50 was 1.34 µM and the TGI was 2.69 µM. With `Cc1ccc(C(=O)OC(C(=O)O)C(OC(=O)c2ccc(C)cc2)C(=O)O)cc1` (stereo not given) (tested in a mixture with another compound) the TGI was 21.6 µM. `CCCCCCOc1ccc(/C=N/Nc2cc(C)nc3ccc(Cl)cc23)cc1` showed a GI50 of 1.75 µM and a TGI of 3.18 µM.

Each molecule was assayed on BT-549 breast (assay: inhibition of tumour cell growth, NCI panel, 48 h).
`O=C1OC(c2ccccc2)=N/C1=C\c1ccc([N+](=O)[O-])cc1` gave a TGI of 67 µM. In the case of `CO[C@](C(=O)OC[C@H]1[C@@H](COC(C)=O)[C@@H]2O[C@H]1c1cc3c(cc12)OCO3)(c1ccccc1)C(F)(F)F`, the TGI was over 100 µM. `O=C(O)Cc1ccc([N+](=O)[O-])cc1[N+](=O)[O-]` gave a TGI of over 100 µM.

Each molecule was assayed on SF-295 CNS (assay: inhibition of tumour cell growth, NCI panel, 48 h).
Work on `O=C(CC1Sc2ccccc2NC1=O)Nc1ccccc1[N+](=O)[O-]` (stereo not given) yielded a TGI of over 100 µM. `CCOC(=O)c1csc(NC(=O)CN2CCCC2)n1` was tested, and the TGI was over 100 µM. Molecule `CCn1cnc2c(=S)nc(N)[nH]c21` has a TGI of over 100 µM. `CC1NC(=O)C(C)C(c2ccccc2)N(N=O)C1c1ccccc1` (stereo not given) gave a TGI of over 100 µM. In the case of `O=C1OC(c2ccccc2)=N/C1=C\c1ccc([N+](=O)[O-])cc1`, the TGI was over 100 µM. In the case of `CO[C@](C(=O)OC[C@H]1[C@@H](COC(C)=O)[C@@H]2O[C@H]1c1cc3c(cc12)OCO3)(c1ccccc1)C(F)(F)F`, the TGI was 58.6 µM. In the case of `O=C(O)Cc1ccc([N+](=O)[O-])cc1[N+](=O)[O-]`, the TGI was over 100 µM. Work on `CON(C)C(=O)C(Cc1ccccc1)NC(=O)OCc1ccccc1` (stereo not given) yielded a TGI of over 100 µM. In the case of `COc1cc(/C=C2\CN(S(=O)(=O)c3ccc(C)cc3)C/C(=C\c3cc(CN4CCCC4)c(O)c(OC)c3)C2=O)cc(CN2CCCC2)c1O`, the GI50 was 2.23 µM and the TGI was 5.07 µM. With `Cc1ccc(C(=O)OC(C(=O)O)C(OC(=O)c2ccc(C)cc2)C(=O)O)cc1` (stereo not given) (tested in a mixture with another compound) the TGI was 16.7 µM. With `CCCCCCOc1ccc(/C=N/Nc2cc(C)nc3ccc(Cl)cc23)cc1` the GI50 was 1.73 µM and the TGI was 3.24 µM.
